US20100061982A1, “3-SUBSTITUTED-1H-INDOLE, 3-SUBSTITUTED-1H-PYRROLO[2,3-B]PYRIDINE AND 3-SUBSTITUTED-1H-PYRROLO[3,2-B]PYRIDINE COMPOUNDS, THEIR USE AS MTOR KINASE AND PI3 KINASE INHIBITORS, AND THEIR SYNTHESES” (priority 2008, published 2010)
Converted amounts (≈) assume the structure as drawn. Where two headings read alike, the source gives them in different places. Blank lines part the entries; values can stand above or below the molecule they belong to.

Tests used:
PI3K alpha = PI3K alpha (Homo sapiens, UniProt P42336); experiment: PI3K-alpha Fluorescence Polarization Assay; assay type: biochemical
Sequence of PI3K alpha (P42336 whole entry, species assumed): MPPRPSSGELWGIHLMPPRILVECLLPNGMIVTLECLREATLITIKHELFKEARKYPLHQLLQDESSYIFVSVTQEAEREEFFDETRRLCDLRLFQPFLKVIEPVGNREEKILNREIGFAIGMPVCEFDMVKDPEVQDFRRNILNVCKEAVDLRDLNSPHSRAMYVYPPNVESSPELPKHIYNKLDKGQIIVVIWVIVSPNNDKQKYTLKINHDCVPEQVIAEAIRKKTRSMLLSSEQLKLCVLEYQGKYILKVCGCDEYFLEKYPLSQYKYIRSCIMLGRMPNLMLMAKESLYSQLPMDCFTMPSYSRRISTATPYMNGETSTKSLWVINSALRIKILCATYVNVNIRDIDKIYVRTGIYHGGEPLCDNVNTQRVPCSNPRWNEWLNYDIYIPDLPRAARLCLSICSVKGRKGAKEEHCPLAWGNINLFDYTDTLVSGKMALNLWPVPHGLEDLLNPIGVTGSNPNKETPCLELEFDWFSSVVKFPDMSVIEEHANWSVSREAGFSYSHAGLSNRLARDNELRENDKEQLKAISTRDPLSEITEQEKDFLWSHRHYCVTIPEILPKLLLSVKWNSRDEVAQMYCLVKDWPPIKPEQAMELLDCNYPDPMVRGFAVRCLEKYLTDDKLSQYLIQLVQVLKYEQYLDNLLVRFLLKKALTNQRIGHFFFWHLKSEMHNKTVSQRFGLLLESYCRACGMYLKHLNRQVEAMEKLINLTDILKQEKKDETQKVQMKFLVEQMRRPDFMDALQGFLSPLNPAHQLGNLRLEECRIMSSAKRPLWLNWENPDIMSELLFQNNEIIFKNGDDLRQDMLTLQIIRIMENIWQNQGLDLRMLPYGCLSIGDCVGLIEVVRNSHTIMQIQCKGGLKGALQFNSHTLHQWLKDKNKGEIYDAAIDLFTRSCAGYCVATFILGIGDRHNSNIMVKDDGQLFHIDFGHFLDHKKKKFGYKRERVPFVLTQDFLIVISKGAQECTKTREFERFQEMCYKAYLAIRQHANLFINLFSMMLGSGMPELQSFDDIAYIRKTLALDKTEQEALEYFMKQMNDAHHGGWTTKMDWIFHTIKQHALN
Sequence of PI3K alpha (P27986 whole entry partner, species assumed): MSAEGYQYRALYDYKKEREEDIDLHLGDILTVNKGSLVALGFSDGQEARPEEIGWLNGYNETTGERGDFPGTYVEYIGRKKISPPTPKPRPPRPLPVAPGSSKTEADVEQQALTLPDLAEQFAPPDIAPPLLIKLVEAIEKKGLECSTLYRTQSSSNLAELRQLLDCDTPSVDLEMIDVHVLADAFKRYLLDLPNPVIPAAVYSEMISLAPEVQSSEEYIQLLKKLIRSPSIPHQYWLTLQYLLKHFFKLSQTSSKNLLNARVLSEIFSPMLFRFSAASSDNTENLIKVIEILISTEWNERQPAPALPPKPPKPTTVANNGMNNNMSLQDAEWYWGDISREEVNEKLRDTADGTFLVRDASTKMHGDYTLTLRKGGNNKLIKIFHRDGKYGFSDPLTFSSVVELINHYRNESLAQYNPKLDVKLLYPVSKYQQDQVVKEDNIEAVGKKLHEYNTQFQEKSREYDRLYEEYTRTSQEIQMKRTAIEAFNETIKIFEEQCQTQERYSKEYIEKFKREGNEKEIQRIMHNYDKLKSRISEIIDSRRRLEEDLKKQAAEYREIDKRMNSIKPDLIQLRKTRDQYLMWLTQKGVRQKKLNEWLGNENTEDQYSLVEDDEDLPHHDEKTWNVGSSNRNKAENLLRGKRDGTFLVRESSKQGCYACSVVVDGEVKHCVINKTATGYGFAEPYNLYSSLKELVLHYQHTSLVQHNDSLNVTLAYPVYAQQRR

Solubility pH 7.4 = conditions: pH 7.4, aqueous buffer
[1] = PAMPA permeability pH 7.4
mTOR = mTOR (Homo sapiens, UniProt P42345); experiment: mTOR Enzyme Assay (DELFIA, purified enzyme); assay type: biochemical; parameters: FLAG
[2] = Microsome Stability (15 min), rat; assay type: in vitro ADME; conditions: microsomes, Phase I (NADPH), read-out: Microsome Stability (15 min) T ½ Phase I rat
[3] = Buffer Stability (37° C.)
[4] = Microsome Stability (15 min), nude mouse; assay type: in vitro ADME; conditions: microsomes
[5] = Microsome Stability (15 min), human; assay type: in vitro ADME; conditions: microsomes
[6] = Plasma Stability (37° C.), rat
[7] = CACO2 permeability a-b/b-a; assay type: in vitro ADME; conditions: human, Caco-2; for Papp A→B: a − b (first value of cell), read-out: CACO2 Pe a − b; for Papp B→A: b − a (second value of cell), read-out: CACO2 Pe b − a
[8] = In vivo blood/plasma and tumor levels of prodrug and metabolites after 50 mg, kg po; conditions: 50 mg
[9] = nude, mouse, Phase I (NADPH), read-out: Microsome Stability (15 min) T ½ Phase I nude mouse
[10] = Phase I (NADPH), read-out: Microsome Stability (15 min) T ½ Phase I human
[11] = value after the slash in Table VIc, read-out: Microsome Stability (15 min) T ½ human, second value of cell
[12] = Phase I (NADPH), read-out: Microsome Stability (15 min) T ½ Phase I nude mouse

IC50 (PI3K alpha; read-out: PI3K alpha Mean IC50): 82 nM
solubility (Solubility pH 7.4): 49 µg/mL
PAMPA Pe [1]: 0.24 10e−6 cm/s
SMILES: COc1ccc2c(c1)c(/C=C1\Oc3cc(OC(C)=O)cc(OC(C)=O)c3C1=O)cn2CCCN(C)C [Example 15, (2Z)-2-({1-[3-(dimethylamino)propyl]-5-methoxy-1H-indol-3-yl}methylene)-3-oxo-2,3-dihydro-1-benzofuran-4,6-diyl diacetate]

half-life [2]: 5 min
IC50 (PI3K alpha; read-out: PI3K alpha Mean IC50): 157 nM
solubility (Solubility pH 7.4): 4 µg/mL (≈ 8.2 µM)
Buffer Stability (37° C.) % Remaining (at 16-23 hours) SGF [3]: 96%
Buffer Stability (37° C.) % Remaining (at 16-23 hours) SIF [3]: 0%
Buffer Stability (37° C.) % Remaining (at 16-23 hours) pH 1 [3]: 95%
Buffer Stability (37° C.) % Remaining (at 16-23 hours) pH 4.5 [3]: 93%
Buffer Stability (37° C.) % Remaining (at 16-23 hours) pH 6.6 [3]: 95%
Buffer Stability (37° C.) % Remaining (at 16-23 hours) pH 7.4 [3]: 32%
Buffer Stability (37° C.) % Remaining (at 16-23 hours) pH 9 [3]: 0%
half-life [4, 9]: > 30 min
half-life [5, 10]: 4 min
PAMPA Pe [1]: 0 10e−6 cm/s
Plasma Stability (37° C.) % Remaining (3-3.5 hours) rat [6]: 2%
SMILES: COc1ccc2[nH]c(-c3ccccc3)c(/C=C3\Oc4cc(OC(=O)c5ccccc5)ccc4C3=O)c2c1 [Example 17, (2Z)-2-[(5-methoxy-2-phenyl-1H-indol-3-yl)methylene]-3-oxo-2,3-dihydro-1-benzofuran-6-yl benzoate]

half-life [2]: > 30 min
IC50 (PI3K alpha; read-out: PI3K alpha Mean IC50): 62.8 nM
solubility (Solubility pH 7.4): 1 µg/mL (≈ 2.6 µM)
Papp A→B [7]: 66.3 ×10⁻⁶ cm/s
Papp B→A [7]: 58.1 ×10⁻⁶ cm/s
half-life [4, 9]: 30 min
half-life ([4]; nude, mouse, value after the slash in Table VIc, read-out: Microsome Stability (15 min) T ½ nude mouse, second value of cell): 2 min
half-life [5, 10]: > 30 min
half-life [5, 11]: 6 min
PAMPA Pe [1]: 0.09 10e−6 cm/s
SMILES: Cn1cc(/C=C2\Oc3cc(O)cc(O)c3C2=O)c2c(-c3ccccc3)ccnc21 [(2Z)-4,6-dihydroxy-2-[(1-methyl-4-phenyl-1H-pyrrolo[2,3-b]pyridin-3-yl)methylene]-1-benzofuran-3(2H)-one]

IC50 (PI3K alpha; read-out: PI3K alpha Mean IC50): 313 nM
solubility (Solubility pH 7.4): 43 µg/mL (≈ 82 µM)
PAMPA Pe [1]: 0.19 10e−6 cm/s
SMILES: COC(=O)Oc1cc(OC(=O)OC)c2c(c1)O/C(=C\c1cn(CCCN(C)C)c3ccc(OC)cc13)C2=O [Example 13, (2Z)-2-({1-[3-(dimethylamino)propyl]-5-methoxy-1H-indol-3-yl}methylene)-3-oxo-2,3-dihydro-1-benzofuran-4,6-diyl dimethyl biscarbonate]

half-life [2]: 8 min
IC50 (PI3K alpha; read-out: PI3K alpha Mean IC50): 10 nM
solubility (Solubility pH 7.4): 1 µg/mL (≈ 1.56 µM)
Buffer Stability (37° C.) % Remaining (at 16-23 hours) SGF [3]: 0%
Buffer Stability (37° C.) % Remaining (at 16-23 hours) SIF [3]: 0%
Buffer Stability (37° C.) % Remaining (at 16-23 hours) pH 1 [3]: 0%
Buffer Stability (37° C.) % Remaining (at 16-23 hours) pH 4.5 [3]: 0%
Buffer Stability (37° C.) % Remaining (at 16-23 hours) pH 6.6 [3]: 0%
Buffer Stability (37° C.) % Remaining (at 16-23 hours) pH 7.4 [3]: 0%
Buffer Stability (37° C.) % Remaining (at 16-23 hours) pH 9 [3]: 0%
half-life [5, 10]: 6 min
PAMPA Pe [1]: 0 10e−6 cm/s
Plasma Stability (37° C.) % Remaining (3-3.5 hours) rat [6]: 0%
SMILES: COc1ccc2[nH]c(-c3ccccc3)c(/C=C3\Oc4cc(OC(=O)Oc5ccccc5)cc(OC(=O)Oc5ccccc5)c4C3=O)c2c1 [Example 23, (2Z)-2-[(5-methoxy-2-phenyl-1H-indol-3-yl)methylene]-3-oxo-2,3-dihydro-1-benzofuran-4,6-diyl diphenyl biscarbonate]

half-life [2]: 12 min
solubility (Solubility pH 7.4): 53 µg/mL (≈ 135 µM)
PAMPA Pe [1]: 0 10e−6 cm/s
SMILES: COc1ccc2c(c1)c(/C=C1\Oc3cc(O)ccc3C1=O)cn2CCCN(C)C [(2Z)-2-({1-[3-(dimethylamino)propyl]-5-methoxy-1H-indol-3-yl}methylene)-6-hydroxy-1-benzofuran-3(2H)-one]

Further lines, the molecule ahead of its results:

SMILES: COc1ccc2c(c1)c(/C=C1\Oc3cc(O)cc(OC(=O)N(C)C)c3C1=O)cn2CCCN(C)C [Example 40, (2Z)-2-({1-[3-(dimethylamino)propyl]-5-methoxy-1H-indol-3-yl}methylene)-6-hydroxy-3-oxo-2,3-dihydro-1-benzofuran-4-yl dimethylcarbamate]
IC50 (mTOR; read-out: mTOR Mean IC50): > 20000 nM
IC50 (PI3K alpha): 5880 nM

SMILES: CCOC(=O)CNC(=O)Oc1cc(OC(=O)NCC(=O)OCC)c2c(c1)O/C(=C\c1cn(CCCN(C)C)c3ccc(OC)cc13)C2=O [Example 35, diethyl 2,2′-[[(2Z)-2-({1-[3-(dimethylamino)propyl]-5-methoxy-1H-indol-3-yl}methylene)-3-oxo-2,3-dihydro-1-benzofuran-4,6-diyl]bis(oxycarbonylimino)]diacetate]
IC50 (PI3K alpha): 28 nM
solubility (Solubility pH 7.4): 51 µg/mL (≈ 76.5 µM)
PAMPA Pe [1]: 0 10e−6 cm/s

SMILES: COc1ccc2[nH]c(-c3ccccc3)c(/C=C3\Oc4cc(OC(=O)N(C)C)cc(OC(=O)N(C)C)c4C3=O)c2c1 [Example 30, (2Z)-2-[(5-methoxy-2-phenyl-1H-indol-3-yl)methylene]-3-oxo-2,3-dihydro-1-benzofuran-4,6-diyl bis(dimethylcarbamate)]
plasma prodrug concentration ([8]; 0.5 h): 29 ng, ml
plasma prodrug concentration ([8]; 2 h): 65 ng, ml
plasma prodrug concentration ([8]; 6 h (third value)): 20 ng, ml
half-life [2]: 19 min
IC50 (PI3K alpha): 2220 nM
Papp A→B [7]: 0.19 ×10⁻⁶ cm/s
Papp B→A [7]: 0.04 ×10⁻⁶ cm/s
half-life [4, 12]: > 30 min
half-life [5, 10]: < 1 min
PAMPA Pe [1]: 0 10e−6 cm/s

SMILES: CCOP(=O)(OCC)Oc1cc2c(c(OP(=O)(OCC)OCC)c1)C(=O)/C(=C/c1cn(CCCN(C)C)c3ccc(OC)cc13)O2 [Example 33, (2Z)-2-({1-[3-(dimethylamino)propyl]-5-methoxy-1H-indol-3-yl}methylene)-3-oxo-2,3-dihydro-1-benzofuran-4,6-diyl tetraethyl bis(phosphate)]
half-life [2]: 12 min
IC50 (PI3K alpha): > 10000 nM
solubility (Solubility pH 7.4): 59 µg/mL
half-life [4, 12]: 15 min
half-life [5, 10]: 4 min
PAMPA Pe [1]: 0.25 10e−6 cm/s

SMILES: Cn1cc(/C=C2\Oc3cccc(O)c3C2=O)c2c(N3CC4CCC(C3)O4)ccnc21 [(2Z)-4-hydroxy-2-{[1-methyl-4-(8-oxa-3-azabicyclo[3.2.1]oct-3-yl)-1H-pyrrolo[2,3-b]pyridin-3-yl]methylene}-1-benzofuran-3(2H)-one]
half-life [2]: 2 min
Papp A→B [7]: 5.5 ×10⁻⁶ cm/s
Papp B→A [7]: 8.1 ×10⁻⁶ cm/s
half-life [4, 9]: 13 min
half-life [5, 10]: 28 min
half-life [5, 11]: 3 min
PAMPA Pe [1]: 0.79 10e−6 cm/s

SMILES: COc1ccc2c(c1)c(/C=C1\Oc3ccc(O)cc3C1=O)c(C)n2CCN1CCN(C)CC1 [(2Z)-5-hydroxy-2-({5-methoxy-2-methyl-1-[2-(4-methylpiperazin-1-yl)ethyl]-1H-indol-3-yl}methylene)-1-benzofuran-3(2H)-one]
IC50 (mTOR; read-out: mTOR Mean IC50): 1050 nM

SMILES: COc1ccc2c(c1)c(/C=C1\Oc3cc(OC(=O)C(C)(C)C)cc(OC(=O)C(C)(C)C)c3C1=O)cn2CCCN(C)C [Example 14, (2Z)-2-({1-[3-(dimethylamino)propyl]-5-methoxy-1H-indol-3-yl}methylene)-3-oxo-2,3-dihydro-1-benzofuran-4,6-diyl bis(2,2-dimethylpropanoate)]
half-life [2]: 3 min
solubility (Solubility pH 7.4): 1 µg/mL (≈ 1.73 µM)
Buffer Stability (37° C.) % Remaining (at 16-23 hours) SGF [3]: 94%
Buffer Stability (37° C.) % Remaining (at 16-23 hours) SIF [3]: 0%
Buffer Stability (37° C.) % Remaining (at 16-23 hours) pH 1 [3]: 89%
Buffer Stability (37° C.) % Remaining (at 16-23 hours) pH 4.5 [3]: 98%
Buffer Stability (37° C.) % Remaining (at 16-23 hours) pH 6.6 [3]: 79%
Buffer Stability (37° C.) % Remaining (at 16-23 hours) pH 7.4 [3]: 20%
Buffer Stability (37° C.) % Remaining (at 16-23 hours) pH 9 [3]: 0%
half-life [4, 9]: 2 min
half-life [5, 10]: 21 min
PAMPA Pe [1]: 0 10e−6 cm/s

SMILES: COc1ccc2c(c1)c(/C=C1\Oc3cc(OC(=O)N(C)C)cc(O)c3C1=O)c(C)n2CCN1CCN(C)CC1 [Example 41, (2Z)-4-hydroxy-2-({5-methoxy-2-methyl-1-[2-(4-methylpiperazin-1-yl)ethyl]-1H-indol-3-yl}methylene)-3-oxo-2,3-dihydro-1-benzofuran-6-yldimethylcarbamate]
IC50 (mTOR): 13000 nM
IC50 (PI3K alpha): 1130 nM

SMILES: COc1ccc2c(c1)c(/C=C1\Oc3cc(OC(=O)N(c4ccccc4)c4ccccc4)cc(OC(=O)N(c4ccccc4)c4ccccc4)c3C1=O)c(C)n2CCN1CCN(C)CC1 [Example 29, (2Z)-2-({5-methoxy-2-methyl-1-[2-(4-methylpiperazin-1-yl)ethyl]-1H-indol-3-yl}methylene)-3-oxo-2,3-dihydro-1-benzofuran-4,6-diyl bis(diphenylcarbamate)]
IC50 (PI3K alpha): 1000 nM
solubility (Solubility pH 7.4): 5 µg/mL (≈ 5.85 µM)
PAMPA Pe [1]: 0 10e−6 cm/s

SMILES: COc1ccc2[nH]c(-c3ccccc3)c(/C=C3\Oc4cc(OC(=O)N(c5ccccc5)c5ccccc5)ccc4C3=O)c2c1 [Example 20, (2Z)-2-[(5-methoxy-2-phenyl-1H-indol-3-yl)methylene]-3-oxo-2,3-dihydro-1-benzofuran-6-yl diphenylcarbamate]
half-life [2]: > 30 min
IC50 (PI3K alpha; read-out: PI3K alpha Mean IC50): > 10000 nM
Buffer Stability (37° C.) % Remaining (at 16-23 hours) SGF [3]: 100%
Buffer Stability (37° C.) % Remaining (at 16-23 hours) SIF [3]: 100%
Buffer Stability (37° C.) % Remaining (at 16-23 hours) pH 1 [3]: 100%
Buffer Stability (37° C.) % Remaining (at 16-23 hours) pH 4.5 [3]: 100%
Buffer Stability (37° C.) % Remaining (at 16-23 hours) pH 6.6 [3]: 100%
Buffer Stability (37° C.) % Remaining (at 16-23 hours) pH 7.4 [3]: 100%
Buffer Stability (37° C.) % Remaining (at 16-23 hours) pH 9 [3]: 95%
half-life [4, 12]: > 30 min
half-life [5, 10]: > 30 min
PAMPA Pe [1]: Undetected
Plasma Stability (37° C.) % Remaining (3-3.5 hours) rat [6]: 91%
